Patent US20230265094A1, “RIPK1 INHIBITORS AND METHODS OF USE” (Merck Sharp & Dohme LLC, priority 2020, published 2023)
Where a name gives a salt, the structure may show the parent alone.

Each molecule was assayed against T1, RIPK1 (Homo sapiens, UniProt Q13546) (assay: RIPK1-ADP-Glo enzymatic assay). Conditions: ADP-Glo luminescent ADP detection; 25 nM GST-RIPK1 kinase domain (residues 1-327), 300 μM ATP, dephosphorylated-MBP substrate; 30 min pre-incubation, 150 min reaction.
T1 construct: recombinant GST-RIPK1 kinase domain (residues 1-327) enzyme produced from baculovirus-transfected Sf21 cells; host or cells: baculovirus-transfected Sf21 insect cells
T1 sequence (Q13546 1-327): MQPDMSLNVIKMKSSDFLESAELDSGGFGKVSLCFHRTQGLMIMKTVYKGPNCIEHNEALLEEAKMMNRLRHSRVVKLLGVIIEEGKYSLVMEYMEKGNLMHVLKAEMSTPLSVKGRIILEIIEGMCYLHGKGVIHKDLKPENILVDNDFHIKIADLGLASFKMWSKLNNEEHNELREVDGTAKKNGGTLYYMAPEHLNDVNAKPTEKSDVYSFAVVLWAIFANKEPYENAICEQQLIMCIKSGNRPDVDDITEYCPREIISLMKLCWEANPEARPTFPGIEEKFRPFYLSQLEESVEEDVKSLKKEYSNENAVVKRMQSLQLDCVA
Format: biochemical
Protocol: RIPK1-ADP-Glo Enzymatic Assay
The enzymatic activity of RIPK1 is measured using an assay derived from ADP-Glo kit (Promega™), which provides a luminescent-based ADP detection system. Specifically, the ADP generated by RIPK1 kinase is proportionally detected as luminescent signals in a homogenous fashion. In this context, the assessment of the inhibitory effect of small molecules (EC50) is measured by the effectiveness of the compounds to inhibit the ATP to ADP conversion by RIPK1.
In this assay, the potency (EC50) of each compound was determined from a ten-point (1:3 serial dilution; top compound concentration of 100000 nM) titration curve using the following outlined procedure. To each well of a white ProxiPlus 384 well-plate, 30 nL of compound (1% DMSO in final assay volume of 3 μL) was dispensed, followed by the addition of 2 μL of 1×assay buffer (25 mM Hepes 7.3, 20 mM MgCl2, 50 mM NaCl, 1 mM DTT, 0.005% Tween20, and 0.02% BSA) containing 37.5 nM of GST-RIPK1 (recombinant GST-RIPK1 kinase domain (residues 1-327) enzyme produced from baculovirus-transfected Sf21 cells: MW=62 kDa). Plates were placed in an ambient temperature humidified chamber for a 30 minutes pre-incubation with compound. Subsequently, each reaction was initiated by the addition of 1 μL 1×assay buffer containing 900 μM ATP and […] dephosphorylated-MBP substrate. The final reaction in each well of 3 μL consists of 25 nM of GST-RIPK1, 300 μM ATP, and 3 μM dephosphorylated-MBP. Kinase reactions were allowed to proceed for 150 minutes prior to adding ADP-Glo reagents per Promega's outlined kit protocol. Dose-response curves were generated by plotting percent effect (% product conversion; Y-axis) vs. Log10 compound concentrations (X-axis). EC50 values were calculated using a non-linear regression, four-parameters sigmoidal dose-response model.

EC50	SMILES
2.29 µM	CC(C)C1(O)CN(C(=O)N2N=CC[C@H]2c2cc(F)cc(F)c2)C1 [Example 1.30, (S)-(5-(3,5-difluorophenyl)-4,5-dihydro-1H-pyrazol-1-yl)(3-hydroxy-3-isopropylazetidin-1-yl)methanone]
0.105 µM	O=C(N1CC(Oc2ncc(Cn3cccn3)s2)C1)N1N=CC[C@H]1c1cc(F)cc(F)c1 [Example 3.8, (S)-(3-((5-((1H-pyrazol-1-yl)methyl)thiazol-2-yl)oxy)azetidin-1-yl)(5-(3,5-difluorophenyl)-4,5-dihydro-1H-pyrazol-1-yl)methanone, TFA salt]
1.11 µM	O=C(N1CC(c2ccncn2)C1)N1N=CC[C@H]1c1cc(F)cc(F)c1 [Example 1.51, (S)-(5-(3,5-difluorophenyl)-4,5-dihydro-1H-pyrazol-1-yl)(3-(pyrimidin-4-yl)azetidin-1-yl)methanone]
0.007 µM	O=C(N1CC(Oc2ccc(F)cc2)C1)N1N=CC[C@H]1c1cc(F)cc(F)c1 [Example 1.50, (S)-(5-(3,5-difluorophenyl)-4,5-dihydro-1H-pyrazol-1-yl)(3-(4-fluorophenoxy)azetidin-1-yl)methanone]
2.43 µM	O=C(N1CC(O)(c2ccccc2)C1)N1N=CC[C@H]1c1ccc(Cl)cc1 [Example 2.8, (S)-(5-(4-chlorophenyl)-4,5-dihydro-1H-pyrazol-1-yl)(3-hydroxy-3-phenylazetidin-1-yl)methanone]
0.0183 µM	O=C(N1CC(Cl)C1)N1N=CC[C@H]1c1cc(F)cc(F)c1 [Example 1.33, (S)-(3-chloroazetidin-1-yl)(5-(3,5-difluorophenyl)-4,5-dihydro-1H-pyrazol-1-yl)methanone]
4.23 µM	CS(=O)(=O)C1CN(C(=O)N2N=CC[C@H]2c2cc(F)cc(F)c2)C1 [Example 1.54, (S)-(5-(3,5-difluorophenyl)-4,5-dihydro-1H-pyrazol-1-yl)(3-(methylsulfonyl)azetidin-1-yl)methanone]
0.0105 µM	C[C@@H]1[C@@H](Oc2ccccc2)CN1C(=O)N1N=CC[C@H]1c1cc(F)cc(F)c1 (single isomer, unassigned) [Example 1.10, ((S)-5-(3,5-difluorophenyl)-4,5-dihydro-1H-pyrazol-1-yl)((2R,3S or 2S,3R)-2-methyl-3-phenoxyazetidin-1-yl)methanone, TFA salt]
0.0257 µM	C[C@@H]1[C@H](Oc2ccc(F)cc2)CN1C(=O)N1N=CC[C@H]1c1ccc(Cl)cc1 [Example 2.20, ((S)-5-(4-chlorophenyl)-4,5-dihydro-1H-pyrazol-1-yl)((2R,3R)-3-(4-fluorophenoxy)-2-methylazetidin-1-yl)methanone]
0.0186 µM	CC(c1ccccc1)C1CN(C(=O)N2N=CC[C@H]2c2cc(F)cc(F)c2)C1 (single isomer, unassigned) [Example 2.42, ((S)-5-(3,5-difluorophenyl)-4,5-dihydro-1H-pyrazol-1-yl)(3-((R or S)-1-phenylethyl)azetidin-1-yl)methanone]
0.0067 µM	O=C(N1CC(Nc2ccccc2)C1)N1N=CC[C@H]1c1cc(F)cc(F)c1 [Example 2.3, (S)-(5-(3,5-difluorophenyl)-4,5-dihydro-1H-pyrazol-1-yl)(3-(phenylamino)azetidin-1-yl)methanone]
0.0574 µM	CCC1(Oc2ccccc2)CN(C(=O)N2N=CC[C@H]2c2cc(F)cc(F)c2)C1 [Example 2.45, (S)-(5-(3,5-difluorophenyl)-4,5-dihydro-1H-pyrazol-1-yl)(3-ethyl-3-phenoxyazetidin-1-yl)methanone]
0.0331 µM	N#Cc1cncc([C@@H]2CC=NN2C(=O)N2CC(Oc3ccc(F)cc3)C2)c1 [Example 2.39, (S)-5-(1-(3-(4-fluorophenoxy)azetidine-1-carbonyl)-4,5-dihydro-1H-pyrazol-5-yl)nicotinonitrile]
0.0182 µM	O=C(N1CC(Oc2nc3ccncc3s2)C1)N1N=CC[C@H]1c1cc(F)cc(F)c1 [Example 3.6, (S)-(5-(3,5-difluorophenyl)-4,5-dihydro-1H-pyrazol-1-yl)(3-(thiazolo[5,4-c]pyridin-2-yloxy)azetidin-1-yl)methanone, TFA salt]
0.0391 µM	C[C@@H]1[C@H](Oc2ccc(F)cc2)CN1C(=O)N1N=CC[C@H]1c1cc(F)cc(F)c1 [Example 2.21, ((S)-5-(3,5-difluorophenyl)-4,5-dihydro-1H-pyrazol-1-yl)((2R,3R)-3-(4-fluorophenoxy)-2-methylazetidin-1-yl)methanone]
0.0128 µM	C[C@H]1[C@@H](Oc2ccc(F)cc2)CN1C(=O)N1N=CC[C@H]1c1cncc(C#N)c1 [Example 2.25, 5-((S)-1-((2S,3S)-3-(4-fluorophenoxy)-2-methylazetidine-1-carbonyl)-4,5-dihydro-1H-pyrazol-5-yl)nicotinonitrile]
0.0229 µM	N#Cc1cc(C(F)(F)C2CN(C(=O)N3N=CC[C@H]3c3cc(F)cc(F)c3)C2)ccn1 [Example 2.41, (S)-4-((1-(5-(3,5-difluorophenyl)-4,5-dihydro-1H-pyrazole-1-carbonyl)azetidin-3-yl)difluoromethyl)picolinonitrile]
0.233 µM	COC1(C(F)(F)F)CN(C(=O)N2N=CC[C@H]2c2cc(F)cc(F)c2)C1 [Example 1.46, (S)-(5-(3,5-difluorophenyl)-4,5-dihydro-1H-pyrazol-1-yl)(3-methoxy-3-(trifluoromethyl)azetidin-1-yl)methanone]
0.0242 µM	CC1(Oc2ccnc(C#N)c2)CN(C(=O)N2N=CC[C@H]2c2cc(F)cc(F)c2)C1 [Example 2.35, (S)-4-((1-(5-(3,5-difluorophenyl)-4,5-dihydro-1H-pyrazole-1-carbonyl)-3-methylazetidin-3-yl)oxy)picolinonitrile]
0.245 µM	O=C(N1CC(OC2CCCCC2)C1)N1N=CC[C@H]1c1cc(F)cc(F)c1 [Example 1.59, (S)-(3-(cyclohexyloxy)azetidin-1-yl)(5-(3,5-difluorophenyl)-4,5-dihydro-1H-pyrazol-1-yl)methanone]
0.0118 µM	O=C(N1CC(OCc2ccccc2)C1)N1N=CC[C@H]1c1cc(F)cc(F)c1 [Example 1.25, (S)-(3-(benzyloxy)azetidin-1-yl)(5-(3,5-difluorophenyl)-4,5-dihydro-1H-pyrazol-1-yl)methanone]
0.0205 µM	O=C(N1CC(Oc2ccccc2)C1)N1N=CC[C@H]1c1cccnc1 [Example 2.14, (S)-(3-phenoxyazetidin-1-yl)(5-(pyridin-3-yl)-4,5-dihydro-1H-pyrazol-1-yl)methanone]
0.0381 µM	CSc1nc(C)cc(OC2CN(C(=O)N3N=CC[C@H]3c3cc(F)cc(F)c3)C2)n1 [Example 3.4, (S)-(5-(3,5-difluorophenyl)-4,5-dihydro-1H-pyrazol-1-yl)(3-((6-methyl-2-(methylthio)pyrimidin-4-yl)oxy)azetidin-1-yl)methanone, TFA salt]
0.0276 µM	O=C(N1CCC1c1ccccc1F)N1N=CC[C@H]1c1cc(F)cc(F)c1 (mixture of isomers) [Example 1.21, ((S)-5-(3,5-difluorophenyl)-4,5-dihydro-1H-pyrazol-1-yl)((R and S)-2-(2-fluorophenyl)azetidin-1-yl)methanone]
0.0227 µM	O=C(N1CC(Nc2ccccc2)C1)N1N=CC[C@H]1c1ccc(Cl)cc1 [Example 2.9, (S)-(5-(4-chlorophenyl)-4,5-dihydro-1H-pyrazol-1-yl)(3-(phenylamino)azetidin-1-yl)methanone]
0.0066 µM	O=C(N1CC(c2ccccc2)C1)N1N=CC[C@H]1c1cc(F)cc(F)c1 [Example 1.41, (S)-(5-(3,5-difluorophenyl)-4,5-dihydro-1H-pyrazol-1-yl)(3-phenylazetidin-1-yl)methanone]
0.14 µM	N#Cc1cc(OC2CN(C(=O)N3N=CCC3c3cc(F)cc(F)c3)C2)ncn1 (racemic) [Example 1.5, (R and S)-6-((1-(5-(3,5-difluorophenyl)-4,5-dihydro-1H-pyrazole-1-carbonyl)azetidin-3-yl)oxy)pyrimidine-4-carbonitrile, TFA salt]

SMILES	EC50
O=C(N1CC(OC2CCC2)C1)N1N=CC[C@H]1c1cc(F)cc(F)c1 [Example 2.47, (S)-(3-cyclobutoxyazetidin-1-yl)(5-(3,5-difluorophenyl)-4,5-dihydro-1H-pyrazol-1-yl)methanone]	0.0927 µM
